Consider seven compounds from patent US11180510B2, “Xanthine derivatives and uses thereof as inhibitors of bromodomains of BET proteins” (Centre national de la recherche scientifique, priority 2017, dated 2021).

One assay has as its system c-Myc. The conditions noted are these: known inhibitors, background statement; cited from earlier work.
The subject of the next assay is Molm14 cells. Briefly: Cell Titer-Glo cell viability assay, Molm14. Type of assay: cell-based. The conditions noted are these: Homo sapiens, MOLM-14, 72 h, mean of three experiments, NA = IC50 > maximal concentration used. On the procedure:
(§1) The human leukemia cell line Jurkat (ATCC® TIB-152) and Molm14 was maintained in RPMI-1640 medium or MEMα, respectively and supplemented both with 10% FBS at 37° C. and 5% CO2.
(§2) In antiproliferative assays, compounds were assayed for their growth inhibiting activity towards the described cancer cell lines using the Cell Titer-Glo Luminescent Cell Viability Assay as described by the manufacturer (Promega Corporation). Briefly, 10.000 cells were plated onto 96 well-plates (white with clear bottom (3610, Corning Costar)) in 90 μL media per well immediately before assay. 10 μL of compounds were added at different concentrations (ranging from 50 μM to 6 nM) to each well and cell cultures were incubated 37° C. during 72 h. Vehicle (DMSO) was used as negative control, JQ1 (a pan-BET inhibitor) was used as positive control and all compounds were tested in constant percentage of DMSO (1%). After addition of 50 μL Cell Titer-GLO, shaking 2 minutes and incubating at room temperature 10 minutes, the Luminescence was measured using a Centro luminometer LB960 (Berthold). Dose-response curves were generated and effective dose 50 values (EC50) were calculated using non-linear regression analysis (Graph Pad Prism).
(In general: ATP-based viability assays read luminescence as a measure of living cells.)

A further assay addresses T1, Brd2(BD2) (Homo sapiens, UniProt P25440).
T1 construct: GST tagged bromodomain proteins were purchased from BPS Bioscience; purchased BPS Bioscience
Briefly: HTRF BET selectivity profile, Brd2(BD2). Type of assay: binding. The following applies: read-out: Brd2(BD2) IC50. For orientation: Time-resolved FRET reads energy transfer from a long-lived donor to a nearby acceptor.

For the next assay, the target named is T2, Brd4(BD2) (Homo sapiens, UniProt O60885).
T2 construct: GST tagged bromodomain proteins were purchased from BPS Bioscience; purchased BPS Bioscience
Nature of the assay: HTRF BET selectivity profile, Brd4(BD2). Type of assay: binding. The procedure, abridged:
(§3)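 HTRF peptide-displacement assay with GST-tagged bromodomains and histone peptide, 0.5% final DMSO, incubated 3 h, 6 h or overnight at room temperature or 4 °C depending on bromodomain. 665/620 nm ratio read; inhibition scaled between DMSO and no-peptide controls, IC50 in triplicate.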

Assay [1] deals with T3, BRD4(BD1) (Homo sapiens, UniProt O60885). Nature of the assay: Isothermal Titration Calorimetry. Type of assay: binding. The conditions noted are these: ITC; read-out: Binding affinity (Kd) to BRD4(1) by Isothermal Titration Calorimetry. Summed up: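 […]; general protocol uses 13 injections at 25° C, with protein titrant at 10–15× the compound concentration. Integrated heats fitted to a one-site model for ΔH and KA, with ΔG and TΔS derived from these.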
Background: Isothermal titration calorimetry measures the heat released or taken up as one component is titrated into another.

In another assay the test system is 61 bromodomains. Briefly: Thermal shift assay selectivity profile on 61 bromodomains. Type of assay: binding. The following applies: compound at 25 μM. The method, then:
FIG. 3. Thermal Shift Assay (TSA) of 43c. The evaluation was performed on 61 bromodomains. A cut-off at +/−3.5° C. was set.
TSA “Bromoscan” assays (Reaction Biology) were performed in 384 well RT-PCR plate (BioRad) with a total working volume of 15 μL. The “BromoMelT™, containing the 61 GST- or His-tagged-bromodomains, SYPRO® Orange and a mix compounds as control, was purchased from Reaction Biology. For each point, 3 μL of protein (1×) and 12 μL master mix (buffer+SYPRO® Orange+compound at 25 μM or control mix compounds or DMSO (0.5%)) were mixed in plate. The plate was placed in a CFX384 RTQPC (BioRad), and heated 10 seconds at 25° C., then the temperature was increased from 25° C. to 90° C., by increment of 0.5° C. every 30 seconds. The fluorescence was recorded using FRET filters.

The target in the next assay is T4, Brd2(BD1) (Homo sapiens, UniProt P25440).
T4 construct: GST tagged bromodomain proteins were purchased from BPS Bioscience; purchased BPS Bioscience
Nature of the assay: HTRF BET selectivity profile, Brd2(BD1). Type of assay: binding. The conditions noted are these: for IC50: read-out: Brd2(BD1) IC50; for Ratio 2-1 vs 2-2: selectivity Brd2(BD1) vs Brd2(BD2), HTRF IC50.

In another assay the target is T5, Brdt(BD1) (Homo sapiens, UniProt Q58F21).
T5 construct: GST tagged bromodomain proteins were purchased from BPS Bioscience; purchased BPS Bioscience
Briefly: HTRF BET selectivity profile, Brdt(BD1). Type of assay: binding. Summed up:
as §3

The test system of another assay is Jurkat cells. Briefly: Cell Titer-Glo cell viability assay, Jurkat. Type of assay: cell-based. The conditions noted are these: Homo sapiens, 72 h, mean of three experiments, NA = IC50 > maximal concentration used. The method, then:
as §1, §2

The target in assay [2] is T3, BRD4(BD1). Nature of the assay: HTRF assay, BRD4(BD1)/histone peptide interaction. Type of assay: binding. The following applies: for IC50: HTRF; for Ratio 4-1 vs 4-2: selectivity Brd4(BD1) vs Brd4(BD2), HTRF IC50. Set-up: made in house.
The target in the next assay is Brd3(BD1) (Homo sapiens, UniProt Q15059). Nature of the assay: HTRF BET selectivity profile, Brd3(BD1). Type of assay: binding. Set-up: GST tagged bromodomain proteins were purchased from BPS Bioscience; purchased BPS Bioscience. The conditions noted are these: for Ratio 3-1 vs 3-2: selectivity Brd3(BD1) vs Brd3(BD2), HTRF IC50.
For another assay, the target named is T6, Brd3(BD2) (Homo sapiens, UniProt Q15059).
T6 construct: GST tagged bromodomain proteins were purchased from BPS Bioscience; purchased BPS Bioscience
Nature of the assay: HTRF BET selectivity profile, Brd3(BD2). Type of assay: binding. Summed up:
as §3

The subject of the next assay is acute leukemia. The following applies: phase I study; cited from earlier work.
The next assay addresses T7, ATAD2 (Homo sapiens, UniProt Q6PL18).
T7 construct: GST tagged bromodomain proteins were purchased from BPS Bioscience; purchased BPS Bioscience
T7 sequence (Q6PL18 980-1092 limits assumed): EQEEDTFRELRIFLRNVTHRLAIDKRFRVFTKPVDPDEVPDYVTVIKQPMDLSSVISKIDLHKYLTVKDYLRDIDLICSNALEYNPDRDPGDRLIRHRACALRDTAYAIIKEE
Briefly: HTRF selectivity profile, ATAD2 (non-BET bromodomain control). Type of assay: binding. On the procedure: HTRF assays were performed in white 384 Well Small Volume™ HiBase Polystyrene Microplates (Greiner) with a total working volume of 20 μL. Compounds were dispensed, with 100 nL per well (0.5% final DMSO), from a concentration stock of 10 mM in 100% DMSO and with serial DMSO dilutions, using an Echo® 550 robot from the Access Labcyte platform (Labcyte) and based on the transfer of liquid by acoustic wave. Then, 19.5 μL of buffer is added, using a Multidrop Combi (Thermo Fisher Scientific). […] HTRF signals were measured, after a final incubation (3 h or 6 h or overnight at room temperature or 4° C., according to the bromodomain), using a PHERAstar FS (BMG Labtech) with an excitation filter at 337 nm and fluorescence wavelength measurement at 620 and 665 nm, an integration delay of 60 μs and an integration time of 500 μs. Results were analyzed with a two-wavelengths signal ratio: [intensity (665 nm)/intensity (620 nm)]*104.
Percentage of inhibition was calculated using the following equation: % inhibition=[(compound signal)−(min signal)]/[(max signal)−(min signal)]*100, where ‘max signal’ is the signal ratio with the compound vehicle alone (DMSO) and ‘min signal’ the signal ratio without peptide. […]

Assay [3] concerns BD2 domain of BRD2 and BRD3. The following applies: cited from earlier work.
Setting [4] is: mean of three experiments, NA = IC50 > 50 μM, read-out: Brd4(8D1) IC50.
Where [5] appears, read: triplicates, NA = IC50 > maximal concentration of compound used.

By IC50 is commonly meant the concentration that inhibits the measured activity by half.

Where two headings read alike, the source gives them in different places.

T4 sequence (P25440 74-180 limits assumed): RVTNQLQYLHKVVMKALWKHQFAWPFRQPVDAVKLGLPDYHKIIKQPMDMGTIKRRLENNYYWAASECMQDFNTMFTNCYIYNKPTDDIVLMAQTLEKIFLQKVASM
T6 sequence (Q15059 306-415 limits assumed): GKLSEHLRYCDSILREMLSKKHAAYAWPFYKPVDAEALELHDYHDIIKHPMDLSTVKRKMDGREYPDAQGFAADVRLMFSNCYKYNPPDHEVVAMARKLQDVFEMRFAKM
Sequence of Brd3(BD1) (Q15059 34-140 limits assumed): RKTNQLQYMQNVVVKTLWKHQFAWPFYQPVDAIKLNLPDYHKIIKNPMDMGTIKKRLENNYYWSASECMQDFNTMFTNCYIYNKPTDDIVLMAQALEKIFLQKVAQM
T1 sequence (P25440 344-453 limits assumed): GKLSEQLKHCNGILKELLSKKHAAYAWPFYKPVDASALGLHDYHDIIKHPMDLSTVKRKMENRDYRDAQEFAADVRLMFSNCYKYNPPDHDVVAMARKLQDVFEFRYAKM

As to `COc1cc2c(cc1-c1c(C)noc1C)ncc1[nH]c(=O)n([C@H](C)c3ccccn3)c12` [I-BET151], in the assay on c-Myc, the “effect on c-Myc expression” value is “strong downregulation of c-Myc”.
`Cc1sc2c(c1C)C(c1ccc(Cl)cc1)=N[C@@H](CC(=O)OC(C)(C)C)c1nnc(C)n1-2` [JQ1]: the “effect on c-Myc expression” value in the assay on c-Myc is given as “strong downregulation of c-Myc”.
For the compound `CCn1cnc2c1c(=O)[nH]c(=O)n2Cc1ccc(CNS(=O)(=O)c2ccc(Oc3ccccc3)cc2)cc1` [Compound 30c, N-(4-((7-ethyl-2,6-dioxo-1,2,6,7-tetrahydro-3H-purin-3-yl)methyl)benzyl)-4-phenoxybenzenesulfonamide], the IC50 was found to be 9.2 µM in the assay with Molm14 cells; 2.49 µM at Brd2(BD2); 4.59 µM at Brd4(BD2); 868 nM at Brd2(BD1); 1.18 µM against Brdt(BD1); 10.3 µM in the assay with Jurkat cells. Moreover, the IC50 on BRD4(BD1) [2] (setting [4]) was determined as 510 nM; against BRD4(BD1) [2] (setting [5]) it was 510 nM; against Brd3(BD1), 633 nM; against Brd3(BD2), 3.16 µM. The Kd on BRD4(BD1) [1] amounted to 641 nM. Moreover, in the assay on 61 bromodomains, the “Bromodomain selectivity profile by thermal shift assay” value was “BRD4(1) and BRD3(1) selective”. For the same compound, the “Ratio 2-1 vs 2-2” value at Brd2(BD1) was 3. Also, the “Ratio 4-1 vs 4-2” value at BRD4(BD1) [2] was found to be 9. For the same compound, the “Ratio 3-1 vs 3-2” value at Brd3(BD1) came out at 5.
`Cc1sc2c(c1C)C(c1ccc(Cl)cc1)=N[C@@H](CC(=O)Nc1ccc(O)cc1)c1nnc(C)n1-2` [OTX015, (6S)-4-(4-chlorophenyl)-N-(4-hydroxyphenyl)-2,3,9-trimethyl-6H-thieno[3,2-f][1,2,4]triazolo[4,3-a][1,4]diazepine-6-acetamide]: in the assay on acute leukemia, the “clinical response in acute leukemia” value is “induced remissions, including complete remission in two patients with refractory disease”.
Turning to `CCn1cnc2c1c(=O)[nH]c(=O)n2Cc1ccc(CNS(=O)(=O)c2ccc(OCc3ccccc3)cc2)cc1` [Compound 31a], the concentration for half-maximal inhibition (IC50) came to 1.8 µM with Molm14 cells; 12.8 µM at Brd2(BD2); 9.71 µM on Brd4(BD2); 1460 nM on Brd2(BD1); 8.51 µM against Brdt(BD1); 19.4 µM in the assay with Jurkat cells. The half-inhibitory concentration (IC50) was found to be 355 nM on BRD4(BD1) [2] (setting [4]), 355 nM at BRD4(BD1) [2] (setting [5]), 596 nM on Brd3(BD1) and 13.5 µM against Brd3(BD2). The Kd on BRD4(BD1) [1] was found to be 433 nM. The “Bromodomain selectivity profile by thermal shift assay” value in the assay with 61 bromodomains is listed as “not pan-BET selective”. For the same compound, the “Ratio 2-1 vs 2-2” value on Brd2(BD1) was determined as 9. Besides, the “Ratio 4-1 vs 4-2” value at BRD4(BD1) [2] amounted to 27. Besides, the “Ratio 3-1 vs 3-2” value on Brd3(BD1) was found to be 23.
Turning to `CCn1cnc2c1c(=O)[nH]c(=O)n2Cc1ccc(CNS(=O)(=O)c2ccc(-c3ccccc3)cc2)cc1` [Compound 29b], the concentration for half-maximal inhibition (IC50) stood at 10.6 µM in the assay on Molm14 cells; 16 µM on Brd2(BD2); 17.7 µM against Brd4(BD2); 3310 nM at Brd2(BD1); 19.7 µM at Brdt(BD1); 24.6 µM against ATAD2. The 50% inhibitory concentration (IC50) with Jurkat cells came out at 26.5 µM; at BRD4(BD1) [2] (setting [4]), 450 nM; on BRD4(BD1) [2] (setting [5]) it was 450 nM; against Brd3(BD1) it was 897 nM; on Brd3(BD2) it was 13.5 µM. The “Ratio 2-1 vs 2-2” value on Brd2(BD1) worked out at 5. The “Ratio 4-1 vs 4-2” value on BRD4(BD1) [2] is recorded as 39. Also, the “Ratio 3-1 vs 3-2” value at Brd3(BD1) stood at 15.
Regarding `COc1cc(OC)c2c(=O)[nH]c(-c3cc(C)c(OCCO)c(C)c3)nc2c1` [RVX-208, 2-[4-(2-hydroxyethoxy)-3,5-dimethylphenyl]-5,7-dimethoxy-4(3H)-quinazolinone], the “effect on c-Myc expression” value in the assay with c-Myc is recorded as “no significant effect”. Besides, the bromodomain binding preference entry in [3] was “binds preferentially to the BD2 domain of BRD2 and BRD3”.
